Source: patent publication US10308689B2, “Dengue virus (DV) polypeptide sequences, T cell epitopes and methods and uses thereof” (LA JOLLA INSTITUTE FOR ALLERGY AND IMMUNOLOGY, priority 2010, dated 2019)
pIC50: −log10 of the molar value. Ends that are not written are not given here.

Tests used:
[1] = tested on: PBMC of healthy adult blood donors from Colombo, Sri Lanka; assay: Ex vivo IFNγ ELISPOT, HLA-matched PBMC of Sri Lankan blood donors; type: cell-based, human; design: Total Response per epitope: unit not given here; details: for # donors responded: number of donors responding to the epitope; for T cell response [SFC]: ex vivo IFNγ SFC/10^6 PBMC; for # of responders: responding donors, HLA allele(s)
[2] = target: purified HLA molecules (corresponding predicted allele); assay: MHC peptide-binding assay, summary over alleles; design: species or system human
[3] = restricting HLA allele and serotype as given
[4] = total over responding donors, restricting HLA allele and serotype as given
[5] = IFNγ ELISPOT response summed over responding donors, per epitope
[6] = HLA-matched PBMC, proteome-wide screen
[7] = HLA allele, supertype and serotype
[8] = summed IFNγ ELISPOT response per epitope, HLA allele and serotype as given

With CC[C@H](C)[C@H](NC(=O)[C@@H]1CCCN1C(=O)CNC(=O)[C@@H](NC(=O)[C@H](C)N)[C@@H](C)O)C(=O)N[C@@H](CC(C)C)C(=O)N[C@H](C(=O)N[C@@H](CC(C)C)C(=O)N[C@@H](Cc1c[nH]c2ccccc12)C(=O)O)[C@@H](C)O the “# donors responded” value [1, 3] was 2, the “T cell response [SFC]” value ([1]; per epitope) was 938 SFC and the “# of responders” value [1] was 2. The “Total Response per epitope” value [1, 4] was 938.3 and the pIC50 ([2]; allele B*5801) was 7.89.

With CC[C@H](C)[C@H](NC(=O)[C@@H]1CCCN1C(=O)CNC(=O)[C@@H](NC(=O)[C@H](C)N)[C@@H](C)O)C(=O)N[C@@H](CO)C(=O)N[C@H](C(=O)N[C@@H](CC(C)C)C(=O)N[C@@H](Cc1c[nH]c2ccccc12)C(=O)O)[C@@H](C)O the “# donors responded” value [1, 3] was 2, the “T cell response [SFC]” value ([1]; per epitope) was 236 SFC and the “# of responders” value [1] was 2. The “Total Response per epitope” value [1, 4] was 235.5 and the pIC50 ([2]; allele B*5801) was 9.00.

In the case of CC(C)C[C@H](NC(=O)[C@@H](NC(=O)[C@H](Cc1c[nH]c2ccccc12)NC(=O)[C@H](C)NC(=O)[C@H](CO)NC(=O)[C@H](C)NC(=O)[C@@H]1CCCN1C(=O)[C@@H](N)Cc1c[nH]cn1)[C@@H](C)O)C(=O)N[C@@H](Cc1ccc(O)cc1)C(=O)O, the “# donors responded” value [1, 3] was 3, the “Total Response per epitope” value [1, 4] was 281.7 and the pIC50 ([2]; allele B*3501) was 8.22.

For CC[C@H](C)[C@H](NC(=O)[C@H](CCC(N)=O)NC(=O)[C@@H](N)CCCCN)C(=O)N[C@@H](C)C(=O)N[C@@H](CC(N)=O)C(=O)N[C@@H](CCC(=O)O)C(=O)N[C@@H](CC(C)C)C(=O)N[C@@H](CC(N)=O)C(=O)N[C@@H](Cc1ccc(O)cc1)C(=O)O, the “# donors responded” value [1, 3] was 1, the “Total Response per epitope” value [1, 4] was 26.7 and the pIC50 ([2]; allele B*1501) was 8.05.

With CSCC[C@H](NC(=O)[C@@H](NC(=O)[C@H](Cc1c[nH]cn1)NC(=O)[C@H](Cc1ccccc1)NC(=O)[C@@H](NC(=O)CNC(=O)[C@H](CCC(=O)O)NC(=O)[C@@H](N)CCSC)C(C)C)[C@@H](C)O)C(=O)N[C@@H](Cc1c[nH]c2ccccc12)C(=O)O the pIC50 ([2]; allele B*4403) was 8.52.

With CC[C@H](C)[C@H](NC(=O)CNC(=O)[C@H](CCC(=O)O)NC(=O)CNC(=O)[C@H](CCC(=O)O)NC(=O)[C@H](CCSC)NC(=O)[C@H](CCC(N)=O)NC(=O)[C@@H](N)CCCNC(=N)N)C(=O)N[C@@H](Cc1ccccc1)C(=O)O the “Total Response per epitope” value [1, 5] was 108.3, the “# donors responded” value [1, 6] was 1 and the pIC50 ([2]; allele B*1501) was 8.22.

In the case of CSCC[C@H](NC(=O)[C@H](CCC(N)=O)NC(=O)[C@@H](N)CCCNC(=N)N)C(=O)N[C@@H](CCC(=O)O)C(=O)NCC(=O)N[C@@H](CCC(=O)O)C(=O)NCC(=O)N[C@H](C(=O)N[C@@H](CC(C)C)C(=O)O)C(C)C, the “Total Response per epitope” value [1, 5] was 56.7, the “# donors responded” value [1, 6] was 1 and the pIC50 ([2]; allele B*1501) was 7.72.

CSCC[C@H](NC(=O)[C@H](CCCCN)NC(=O)[C@H](CC(C)C)NC(=O)[C@@H](NC(=O)[C@@H](N)CCCNC(=N)N)C(C)C)C(=O)N[C@H](C(=O)N[C@@H](CCC(=O)O)C(=O)N1CCC[C@H]1C(=O)N[C@@H](Cc1c[nH]c2ccccc12)C(=O)O)C(C)C was tested, and the “Total Response per epitope” value [1, 5] was 150.0, the “# donors responded” value [1, 6] was 1 and the pIC50 ([2]; allele B*5801) was 9.00.

In the case of CC[C@H](C)[C@H](NC(=O)CNC(=O)[C@H](CCC(=O)O)NC(=O)[C@@H]1CCCN1C(=O)[C@@H](N)[C@@H](C)O)C(=O)N[C@H](C(=O)N1CCC[C@H]1C(=O)N[C@@H](CO)C(=O)N[C@@H](CCSC)C(=O)O)[C@@H](C)CC, the “Total Response per epitope” value [1, 5] was 2716.7, the “# donors responded” value [1, 6] was 5 and the “T cell response [SFC]” value ([1]; per epitope) was 2717 SFC. The “# of responders” value [1] was 5 and the pIC50 ([2]; allele B*3501) was 8.10.

For CC(C)C[C@H](NC(=O)[C@H](CCC(N)=O)NC(=O)[C@@H](NC(=O)[C@H](Cc1ccc(O)cc1)NC(=O)[C@@H](N)C(C)C)[C@@H](C)O)C(=O)N[C@@H](CS)C(=O)N[C@@H](CC(=O)O)C(=O)N[C@@H](Cc1c[nH]cn1)C(=O)N[C@@H](CCCNC(=N)N)C(=O)O, the “# donors responded” value [1, 7] was 1, the “Total Response per epitope” value [1, 8] was 35.0 and the pIC50 ([2]; allele A*3301) was 5.72.

For CC(C)[C@H](NC(=O)[C@H](CCC(=O)O)NC(=O)[C@H](Cc1ccc(O)cc1)NC(=O)[C@H](CO)NC(=O)CNC(=O)[C@H](Cc1c[nH]cn1)NC(=O)[C@H](Cc1ccc(O)cc1)NC(=O)[C@H](C)NC(=O)[C@@H](N)Cc1c[nH]c2ccccc12)C(=O)O, the “# donors responded” value [1, 7] was 1, the “Total Response per epitope” value [1, 8] was 25.0 and the pIC50 ([2]; allele B*5101) was 7.96.

With EERDIPERSW the “# donors responded” value [1, 3] was 1 and the “Total Response per epitope” value [1, 4] was 133.3.

In the case of EPISYDPKF, the “# donors responded” value [1, 3] was 1 and the “Total Response per epitope” value [1, 4] was 340.0.

For FAGPVSQHNY, the “# donors responded” value [1, 3] was 3 and the “Total Response per epitope” value [1, 4] was 428.3.

For FLMVLLIPEP, the “# donors responded” value [1, 3] was 1 and the “Total Response per epitope” value [1, 4] was 28.3.

With FTILALFLAH the “# donors responded” value [1, 3] was 8, the “T cell response [SFC]” value ([1]; per epitope) was 1715 SFC and the “# of responders” value [1] was 8. For the same compound, the “Total Response per epitope” value [1, 4] was 1715.0.

In the case of GAMLFLISGK, the “# donors responded” value [1, 3] was 1 and the “Total Response per epitope” value [1, 4] was 23.3.

GEFRLRGEQR was tested, and the “# donors responded” value [1, 3] was 3, the “T cell response [SFC]” value ([1]; per epitope) was 1373 SFC and the “# of responders” value [1] was 3. The “Total Response per epitope” value [1, 4] was 1373.3.

For GFFLRKLTSR, the “# donors responded” value [1, 3] was 1 and the “Total Response per epitope” value [1, 4] was 81.7.

In the case of GPLVAGGLL, the “# donors responded” value [1, 3] was 3 and the “Total Response per epitope” value [1, 4] was 748.3.

HPGAGKTKRY was tested, and the “# donors responded” value [1, 3] was 10, the “T cell response [SFC]” value ([1]; per epitope) was 3047 SFC and the “# of responders” value [1] was 10. For the same compound, the “Total Response per epitope” value [1, 4] was 3046.7.

For IANOATVLM, the “T cell response [SFC]” value ([1]; per epitope) was 1518 SFC and the “# of responders” value [1] was 7.

For IANQAAILM, the “# donors responded” value [1, 3] was 1 and the “Total Response per epitope” value [1, 4] was 58.3.

With IETTILDVDL the “Total Response per epitope” value [1, 5] was 1413.3 and the “# donors responded” value [1, 6] was 2.

IGIGVLLTW was tested, and the “# donors responded” value [1, 3] was 1 and the “Total Response per epitope” value [1, 4] was 378.3.

KEGVFHTMW was tested, and the “# donors responded” value [1, 3] was 1 and the “Total Response per epitope” value [1, 4] was 178.3.

KQISNELNY was tested, and the “# donors responded” value [1, 3] was 1 and the “Total Response per epitope” value [1, 4] was 26.7.

For KSGAIKVLK, the “# donors responded” value [1, 3] was 1 and the “Total Response per epitope” value [1, 4] was 48.3.

For KVLNPYMPSV, the “Total Response per epitope” value [1, 5] was 63.3 and the “# donors responded” value [1, 6] was 1.

In the case of LATGPVLTLW, the “# donors responded” value [1, 3] was 1, the “T cell response [SFC]” value ([1]; per epitope) was 745 SFC and the “# of responders” value [1] was 1. The “Total Response per epitope” value [1, 4] was 745.0.

LMMILPAAL was tested, and the “Total Response per epitope” value [1, 5] was 46.7 and the “# donors responded” value [1, 6] was 1.

For LPVWLAHKVA, the “Total Response per epitope” value [1, 5] was 23.3, the “# donors responded” value [1, 6] was 1 and the “T cell response [SFC]” value ([1]; per epitope) was 23 SFC. For the same compound, the “# of responders” value [1] was 1.

MALKDFKEF was tested, and the pIC50 ([2]; allele B*3501) was 7.11.

In the case of MPVTVASAAQ, the “Total Response per epitope” value [1, 5] was 51.7 and the “# donors responded” value [1, 6] was 1.

In the case of MVSRLLLNR, the “Total Response per epitope” value [1, 5] was 28.3 and the “# donors responded” value [1, 6] was 1.

NPNMIDKTPV was tested, and the “Total Response per epitope” value [1, 5] was 376.7 and the “# donors responded” value [1, 6] was 2.

NPWMEDKTPV was tested, and the “Total Response per epitope” value [1, 5] was 191.7 and the “# donors responded” value [1, 6] was 2.

For RASFIEVKTC, the “Total Response per epitope” value [1, 5] was 290.0 and the “# donors responded” value [1, 6] was 2.

For REDLWCGSL, the “Total Response per epitope” value [1, 5] was 96.7 and the “# donors responded” value [1, 6] was 1.

With REIPERSWNT the “Total Response per epitope” value [1, 5] was 1278.3 and the “# donors responded” value [1, 6] was 2.

REWCFTGERN was tested, and the “Total Response per epitope” value [1, 5] was 1345.0 and the “# donors responded” value [1, 6] was 2.

For RFLEFEALGF, the “Total Response per epitope” value [1, 5] was 181.7 and the “# donors responded” value [1, 6] was 1.

RPGYHTQTA was tested, and the “Total Response per epitope” value [1, 5] was 501.7 and the “# donors responded” value [1, 6] was 2.

In the case of SEMAEALKGM, the “Total Response per epitope” value [1, 5] was 30.0 and the “# donors responded” value [1, 6] was 1.

With SPKRLATAIA the “Total Response per epitope” value [1, 5] was 68.3 and the “# donors responded” value [1, 6] was 1.

In the case of TLMAAILAY, the “# donors responded” value [1, 3] was 1 and the “Total Response per epitope” value [1, 4] was 43.3.

With TLMAMDLGEL the “Total Response per epitope” value [1, 5] was 823.3 and the “# donors responded” value [1, 6] was 1.

TPFGIIPAL was tested, and the “# of responders” value [1] was 1.

TTKRDLGMSK was tested, and the “# donors responded” value [1, 7] was 1 and the “Total Response per epitope” value [1, 8] was 35.0.

In the case of VPLLAMGCY, the “# donors responded” value [1, 7] was 1, the “T cell response [SFC]” value ([1]; per epitope) was 1083 SFC and the “# of responders” value [1] was 1. For the same compound, the “Total Response per epitope” value [1, 8] was 1083.3.

Work on WHYDQDHPY yielded a pIC50 ([2]; allele B*3501) of 5.12.

With YAQMWQLMYF the “Total Response per epitope” value [1, 5] was 135.0 and the “# donors responded” value [1, 6] was 1.

In the case of YTPEGIIPTL, the “# donors responded” value [1, 7] was 1, the “T cell response [SFC]” value ([1]; per epitope) was 872 SFC and the “# of responders” value [1] was 1. For the same compound, the “Total Response per epitope” value [1, 8] was 871.7.
